Data published in US20190365776A1, “THERAPEUTIC AGENT FOR OCULAR FUNDUS DISEASE” (KYUSHU UNIVERSITY, NATIONAL UNIVERSITY CORPORATION, priority 2013, published 2019).

Legend:
[1] = test system: mice CNV (Choroidal Neovascularization) model; test: Mice CNV (choroidal neovascularization) model, laser photocoagulation; type: in vivo, C57BL/6JJcl mice; details: ocular instillation three times a day, day 0 to day 7, control 109177±26399
Protocol: The effectiveness of the compound 1 in a mice CNV model known as a model of age-related macular degeneration or the like was examined in the following manner.
Compound 1 solutions prepared in the same manner as in Example 1: 0.4% solution, 0.8% solution (instillation volume: 20 μL)
Test animals: C57BL/6JJcl mice (6- to 10-week old, sex: male, 11 to 12 mice per group)
The preparation of a CNV model and evaluation were performed with reference to a literature (e.g., J. Leukoc. Biol. 2003; 74: 25-32, or Am. J. Pathol. 1998; 153: 1641-1646). More specifically, each of the mice was given tropicamide by ocular instillation to cause mydriasis, anesthetized by intraperitoneal administration of 100 mg/kg of Ketalar and 10 mg/kg of Selactar, and subjected to photocoagulation at 4 spots per eye. The photocoagulation was performed by krypton laser irradiation (75-μm spot size, 0.1 seconds duration, 200 mW) with a slit-lamp delivery system using a cover glass as a contact lens. Test groups were a saline instillation group (control), a 0.4% compound 1 solution instillation group, and a 0.8% compound 1 solution instillation group. […] More specifically, a spot with bleeding or tissue destruction was excluded, the CNV volume of each spot adopted was calculated by NIS-Elements AR Version 4.13, and then an average value (μm^3) per eye was calculated.

[2] = test system: b-END3 (bEND.3) mouse brain microvascular endothelial cells; test: Tight junction test: Claudin-5 immunostaining in b-END3 cells; type: cell-based; details: pretreatment 3 μM or 30 μM, 3 hours; VEGF 25 ng/mL or IL-6 10 ng/mL, 24 hours
Protocol: (§1) According to a conventional method, b-END3 (bEND.3: ATCC CRL-2299™) cells, which are mouse brain microvascular endothelial cells, were subcultured in 3.5 cm dishes (9×10^5 cells/dish), and a test was started from day 6 after subculture. […]
(§2) The cells after the test were subjected to immunostaining according to the following procedure to evaluate the expression of Claudin-5 or F-Actin. […] Then, a cover glass-sized cell sample was prepared by trimming with a cotton swab, enclosed with a Dako pen, blocked with 10% normal goat serum (10% normal goat serum ready-to-use (Invitrogen)) (30 min, ordinary temperature), and allowed to stand at 4° C. overnight. […]

[3] = test system: b-END3 (bEND.3) mouse brain microvascular endothelial cells; test: Tight junction test: F-Actin immunostaining in b-END3 cells; type: cell-based; details: pretreatment 3 μM or 30 μM, 3 hours; VEGF 25 ng/mL or IL-6 10 ng/mL, 24 hours
Protocol: as §1, §2

C[C@H]1CNCCCN1S(=O)(=O)c1cccc2cncc(F)c12 [compound 1, (S)-(−)-1-(4-fluoro-5-isoquinolinesulfonyl)-2-methyl-1,4-homopiperazine]
CNV volume (mean±standard error, average per eye) ([1]; 0.4% solution): 56408±9007 μm^3 | CNV volume (mean±standard error, average per eye) ([1]; 0.8% solution): 88387±33678 μm^3 | Claudin-5 expression decreased by VEGF stimulation or IL-6 stimulation [2]: improvement in Claudin-5 expression | F-Actin polymerization caused by VEGF stimulation or IL-6 stimulation [3]: suppression of F-Actin polymerization
